Read-outs that look alike come from different tables or passages of the source.
Columns and labels:
[1] = system: LPS induced increases in BAL cells; experiment: LPS challenge induced inflammation, BAL cell counts 24 h post challenge; format: in vivo, A/J mice
Experimental: Previous studies have shown that peak BAL neutrophilia is achieved 24 h post intranasal challenge with LPS at 0.3 μg. In the studies reported here this dose of LPS and this time point were employed. Control animals received phosphate buffered saline (PBS) intranasally.
Approximately 3 min prior to intra-nasal challenge anaesthesia was induced by isofluorane inhalation. Vehicle (PBS) or LPS was instilled at 50 μl per mouse. The LPS concentration was 6 μg/ml (0.3 μg per mouse). Animals were allowed to recover in a heated box at 37° C. and then returned to the home cage.
(§1) The trachea was cannulated using a Portex nylon intravenous cannula (pink luer fitting) shortened to approximately 8 mm. Phosphate buffered saline (PBS) containing heparin (10 units/ml) was used as the lavage fluid. A volume of 0.4 ml was gently instilled and withdrawn 3 times using a 1 ml syringe and then placed in an Eppendorf tube and kept on ice prior to subsequent determinations.
(§2) Lavage fluid was separated from cells by centrifugation and the supernatant decanted and frozen for subsequent analysis. The cell pellet was re-suspended in a known volume of PBS and total cell numbers calculated by counting a stained (Turks stain) aliquot under a microscope using a haemocytometer.
(§3) The residual cell pellet was diluted to approximately 10^5 cells per ml. A volume of 500 μl was placed in the funnel of a cytospin slide and centrifuged for 8 min at 800 rpm. The slide was air dried and stained using ‘Kwik-Diff’ solutions (Shandon) as per the proprietary instructions. When dried and cover-slipped, differential cells were counted using light microscopy. Up to 400 cells were counted by un biased operator using light microscopy. Cells were differentiated using standard morphometric techniques.
Animals were sacrificed 24 h post the LPS challenge. A BAL was performed and the total number of cells recovered counted. Data are presented as individual points and the mean values shown. Data are from 9-10 animals per group. Statistical analysis was by ANOVA. […]

[2] = system: TS induced inflammation (cells recovered in the BAL); experiment: Tobacco smoke (TS) induced inflammation, BAL cell counts 24 h after 11 daily exposures; format: in vivo, A/J mice; settings: for Inhibition, Eosinophils (BAL) / Inhibition, Epithelial Cells (BAL) / Inhibition, Lymphocytes (BAL) / Inhibition, Macrophages (BAL) / Inhibition, Neutrophils (BAL) / Inhibition, Total Cells (BAL): 11 daily TS exposures
Description: Female inbred AJ mice (body weights on initial day of use: 17.2-27.4 g) were obtained from Harlan, full barrier bred and certified free from specified micro-organisms on receipt. The mice were housed, up to 5 per cage, in individually ventilated, polycarbonate solid bottomed cages (IVC) with grade 8 aspen chip bedding. Environment (airflow, temperature and humidity) within the cages was controlled by the IVC system (Techniplast). Food (RM 1, Special Diet Services) and water were provided ad libitum. Individual animals were identified by unique coloured “pentel” markings on their tails, weighed and randomly assigned to treatment groups.
The required quantity of compound was placed into a mortar. Half the required volume CMC was slowly added to form a fine paste and then this was carefully added back to a container. The residual volume of CMC required to achieve the required dose is used to wash out the mortar and the washings added back to the container. For the combination dose, each compound was formulated at double the final required concentration and an equal volume of each compound added together. […]
In this exposure protocol, mice were exposed in groups of 5 in individual clear polycarbonate chambers (27 cm×16 cm×12 cm). The TS from the cigarettes was allowed to enter the exposure chambers at a flow rate of 100 ml/min. In order to minimise any potential problems caused by repeated exposure to a high level of TS (6 cigarettes), the exposure of the mice to TS was increased gradually over the exposure period to a maximum of 6 cigarettes. The exposure schedule used in this study was as follows:
as §1, §2, §3
In addition, animals receiving steroid or the steroid combination were dosed with steroid 20 h prior to the first TS exposure. The control group of mice (shams) received vehicle on days 1 to 11 and were exposed to air daily for a maximum of 50 minutes per day. BAL was performed on day 12, 24 h following the eleventh and final TS exposure.
Since tests for normality were positive the data was subjected to a one way analysis of variance test (ANOVA), followed by a Bonferroni correction for multiple comparisons in order to test for significance between treatment groups. A “p” value of <0.05 was considered to be statistically significant. Percentage inhibitions were automatically calculated within the Excel spreadsheets for the cell data using the formula below: […]
Animals were sacrificed 24 h post the final exposure to TS/air. A BAL was performed and the total number of cells recovered counted. Data are presented as individual points and the mean values shown. Data are from 9-10 animals per group. Statistical analysis was by ANOVA. A “p” value of <0.05 was considered statistically significant. ns=not statistically significant.

[3] = Pharmacokinetic evaluation of plasma levels of theophylline after oral dosing; format: in vivo, A/J mice; settings: for concentration at 15 min / concentration at 30 min / concentration at 60 min / concentration at 240 min: A/J, mouse, plasma; for concentration at 15 min: 15 minutes post dosing; for concentration at 60 min: 60 minutes post dosing; for concentration at 240 min: 240 minutes post dosing
Experimental: The collected blood was mixed and decanted into eppendorf tubes before centrifugation in a microftige. Plasma was collected and stored at −80° C. prior to analysis by an HPLC/MS/MS method. The equipment used in the measurement of plasma levels were a Micromann Quatro Micro Mass Spectrometer (Micromass UK Limited) and a Waters 2795 Alliance HT liquid chromatograph (Waters USA).
Samples were prepared for analysis by adding 200 μl of acetonitrile (containing 0.25 mg/l dextrorphan as an internal standard) to 50 μl of each thawed sample and standard and mixed vigorously. Each sample and standard was then centrifuged at 1000 g for 2 minutes and the supernatant removed for LC-MS/MS analysis.
Analysis of theophylline and dextrorphan was carried out using reverse phase HPLC with tandem mass spectrometric detection (LC-MS/MS). Positive ions for parent compound and a specific fragment product were monitored in a Multiple Reaction Monitoring mode using a Micromass Quatro Micro Mass Spectrometer with Micromass MassLynx software version 4.0. A 25 μl aliquot of each sample and standard was injected onto the liquid chromatography system.

phosphodiesterases = settings: cited from earlier work
[4] = 250 or 375 mg theophylline with 400 μg budesonide twice daily, asthma patients; cited from earlier work
[5] = cited from earlier work
[6] = system: adenosine receptors (A1 and A2 receptors); settings: at therapeutic concentrations; cited from earlier work
[7] = dexamethasone 0.3 mg/kg p.o. at -20, -1 and 6 h relative to LPS (0.3 μg i.n.), BAL 24 h post challenge
[8] = dexamethasone 0.3 mg/kg p.o. twice daily, BAL 24 h post
[9] = theophylline 3 mg/kg p.o. twice daily, BAL 24 h post

C[C@@H]1C[C@H]2[C@@H]3CCC4=CC(=O)C=C[C@]4(C)[C@@]3(F)[C@@H](O)C[C@]2(C)[C@@]1(O)C(=O)CO [Dexamethasone, dexamethasone]
Reduction of neutrophils in BAL [1, 7]: 71%
Reduction of total cells in BAL [1, 7]: 68%
Inhibition, Eosinophils (BAL) [2, 8]: −94%
Inhibition, Epithelial Cells (BAL) [2, 8]: −20%
Inhibition, Lymphocytes (BAL) [2, 8]: −7%
Inhibition, Macrophages (BAL) [2, 8]: −14%
Inhibition, Neutrophils (BAL) [2, 8]: −46%
Inhibition, Total Cells (BAL) [2, 8]: −16%

Cn1c(=O)c2[nH]cnc2n(C)c1=O [Theophylline, 3,7-dihydro-1,3-dimethyl-1H-purine-2,6-dione]
concentration at 15 min ([3]; oral dose 0.3 mg/kg, mean ± SD): 130 ± 6 ng/mL
concentration at 30 min ([3]; oral dose 0.3 mg/kg, 30 minutes post dosing, mean ± SD): 140 ± 25 ng/mL
concentration at 60 min ([3]; oral dose 0.3 mg/kg, mean ± SD): 256 ± 198 ng/mL
concentration at 240 min ([3]; oral dose 0.3 mg/kg, mean ± SD): 65 ± 11 ng/mL
concentration at 15 min ([3]; oral dose 1 mg/kg, mean ± SD): 740 ± 760 ng/mL
concentration at 30 min ([3]; oral dose 1 mg/kg, 30 minutes post dosing, mean ± SD): 660 ± 122 ng/mL
concentration at 60 min ([3]; oral dose 1 mg/kg, mean ± SD): 410 ± 84 ng/mL
concentration at 240 min ([3]; oral dose 1 mg/kg, mean ± SD): 60 ± 15 ng/mL
concentration at 15 min ([3]; oral dose 3 mg/kg, mean ± SD): 1860 ± 290 ng/mL
concentration at 30 min ([3]; oral dose 3 mg/kg, 30 minutes post dosing, mean ± SD): 3660 ± 2640 ng/mL
concentration at 60 min ([3]; oral dose 3 mg/kg, mean ± SD): 1470 ± 110 ng/mL
concentration at 240 min ([3]; oral dose 3 mg/kg, mean ± SD): 90 ± 100 ng/mL
Plasma concentrations at all time points ([3]; oral dose 0.3 mg/kg): less than 1 mg/l
Time of peak levels ([3]; oral dose 3 mg/kg): 30 min
Plasma level of the one animal above 5 mg/l ([3]; oral dose 3 mg/kg, 30 minute time point, single animal): 6.7 mg/A
Plasma Levels ([3]; oral dose 3 mg/kg, 30 minutes post dosing, mean ± SD, 3 mg/kg): 3660 ± 2640 ng/mL
Inhibition of phosphodiesterases (phosphodiesterases): weak and nonselective inhibitor
Activity on LPS induced pulmonary inflammation ([1]; theophylline at the dose level tested (0.3 mg/kg p.o.)): without activity
Plasma concentration achieved (median value) [4]: 8700 ng/mL
Inhibitory effect on any of the specific cell types (BAL) ([2]; theophylline 3 mg/kg alone p.o., 1 h prior to and 6 h post TS, 11 days): No statistically significant inhibitory effect
Inhibition, Total Cells (BAL) ([2]; theophylline 3 mg/kg p.o. twice daily (-1 h and +6 h), BAL 24 h post final exposure): −11%
Inhibition, Eosinophils (BAL) [2, 9]: −56%
Inhibition, Epithelial Cells (BAL) [2, 9]: −18%
Inhibition, Lymphocytes (BAL) [2, 9]: 1%
Inhibition, Macrophages (BAL) [2, 9]: −4%
Inhibition, Neutrophils (BAL) [2, 9]: −10%
Anti-inflammatory activity in the COPD (TS) model ([2]; theophylline given alone): failed to demonstrate any significant anti-inflammatory activity
Bioavailability ([5]; absorption from the gastrointestinal tract): 90-100%
Mean plasma half-life ([5]; adults): about 8 hours
Plasma levels regarded as being necessary for anti-inflammatory efficacy ([5]; in vivo): 10000 to 20000 ng/mL
Plasma half-life ([5]; premature neonates): approximately 30 hours
Time to peak levels following ingestion ([5]; slowed by the presence of food): 1 to 2 h
Plasma half-life ([5]; up to the age of 20): approximately 3.5 hours
Inhibition of adenosine receptors (antagonism of A1 and A2 receptors) [6]: potent inhibitor

Reference: patent US20080318912A1, “Medicaments for Treating Chronic Respiratory Disease” (priority 2004, published 2008)
